From patent US20240182445A1 (ONO PHARMACEUTICAL CO., LTD., priority 2019, published 2024)

target: T1, human TREK-1 (Homo sapiens, UniProt O95069); experiment: TREK-1 Thallium (Tl+) flux assay, Method 1; format: cell-based; details: TREK-1 Thallium (Tl+) flux assay, Method 1
T1 construct: expressed in transfected cells
T1 sequence (O95069 1-426): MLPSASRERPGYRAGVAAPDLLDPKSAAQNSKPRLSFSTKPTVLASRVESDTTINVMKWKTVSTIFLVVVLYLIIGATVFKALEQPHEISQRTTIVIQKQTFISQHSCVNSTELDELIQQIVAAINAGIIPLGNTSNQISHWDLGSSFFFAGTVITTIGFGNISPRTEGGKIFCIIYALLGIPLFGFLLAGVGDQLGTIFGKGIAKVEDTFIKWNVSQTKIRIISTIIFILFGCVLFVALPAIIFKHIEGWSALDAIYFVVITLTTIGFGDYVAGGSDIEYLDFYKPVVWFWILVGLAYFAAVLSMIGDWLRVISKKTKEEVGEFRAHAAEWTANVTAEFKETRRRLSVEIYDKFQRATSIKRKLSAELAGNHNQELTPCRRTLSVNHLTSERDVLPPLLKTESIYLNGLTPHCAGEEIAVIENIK
Method in brief: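 CHO-K1 cells stably expressing human TREK-1, loaded with Thallos dye, received compound or 0.3% DMSO vehicle for 10 min before thallium stimulus buffer. ΔRatio is fluorescence at 25 s after thallium addition over mean pre-addition fluorescence; % inhibition calculated from it.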

Row | IC50 [nM] | SMILES
1 | 2670 | CCc1cc(-c2cnc(NC(=O)c3c(Cl)cnn3C3CCN(C(=O)OC(C)(C)C)CC3)c(C)c2)ccc1OC [Compound 408, tert-butyl 4-(4-chloro-5-((5-(3-ethyl-4-methoxyphenyl)-3-methylpyridin-2-yl)carbamoyl)-1H-pyrazol-1-yl)piperidine-1-carboxylate]
2 | 1340 | Cc1cc(-c2cnn(-c3ccc(F)cc3)c2)cnc1NC(=O)c1c(Cl)cnn1C1CC(C#N)C1 (stereo not drawn) [Compound 394, 4-chloro-1-(3-cyanocyclobutyl)-N-(5-(1-(4-fluorophenyl)-1H-pyrazol-4-yl)-3-methylpyridin-2-yl)-1H-pyrazole-5-carboxamide]
3 | 1780 | Cc1cc(OCc2ccccc2)ccc1NC(=O)c1c(Cl)cnn1C1CCN(C(=O)CC(C)C)CC1 [Compound 401, N-(4-(benzyloxy)-2-methylphenyl)-4-chloro-1-(1-(3-methylbutanoyl)piperidin-4-yl)-1H-pyrazole-5-carboxamide]
4 | 2840 | Cc1cc(OCc2ccccc2)ccc1NC(=O)c1c(Cl)cnn1C1CCN(C(=O)C(C)C)CC1 [Compound 411, N-(4-(benzyloxy)-2-methylphenyl)-4-chloro-1-(1-isobutyrylpiperidin-4-yl)-1H-pyrazole-5-carboxamide]

same assay, conditions: TREK-1 Thallium (Tl+) flux assay; no *^12 (Method 2) mark on these rows

Row | IC50 [nM] | SMILES
5 | 340 | CO[C@@H](C)Cn1ncc(Cl)c1C(=O)Nc1ncc(C#Cc2ccccc2)cc1C [Compound 218, (S)-4-chloro-1-(2-methoxypropyl)-N-(3-methyl-5-(phenylethynyl)pyridin-2-yl)-1H-pyrazole-5-carboxamide]
6 | 580 | Cc1cc(C#Cc2ccccc2)cnc1NC(=O)c1c(Cl)cnn1CCC1CCN(C(=O)OC(C)(C)C)CC1 [Compound 308, tert-butyl 4-(2-(4-chloro-5-((3-methyl-5-(phenylethynyl)pyridin-2-yl)carbamoyl)-1H-pyrazol-1-yl)ethyl)piperidine-1-carboxylate]
7 | 500 | Cc1cc(C#Cc2ccccc2)cnc1NC(=O)c1c(Cl)cnn1C1CN(C(=O)OC(C)(C)C)C1 [Compound 287, tert-butyl 3-(4-chloro-5-((3-methyl-5-(phenylethynyl)pyridin-2-yl)carbamoyl)-1H-pyrazol-1-yl)azetidine-1-carboxylate]
8 | 670 | CC(C)(C)OC(=O)N1CC2(CC(n3ncc(Cl)c3C(=O)Nc3ncc(C#Cc4ccccc4)cc3F)C2)C1 [Compound 334, tert-butyl 6-(4-chloro-5-((3-fluoro-5-(phenylethynyl)pyridin-2-yl)carbamoyl)-1H-pyrazol-1-yl)-2-azaspiro[3.3]heptane-2-carboxylate]
9 | 400 | Cc1cc(C#Cc2ccccc2)cnc1NC(=O)c1c(Cl)cnn1CC1(C)CCN(C(=O)C2COCCO2)CC1 (stereo not drawn) [Compound 251, 1-((1-(1,4-dioxane-2-carbonyl)-4-methylpiperidin-4-yl)methyl)-4-chloro-N-(3-methyl-5-(phenylethynyl)pyridin-2-yl)-1H-pyrazole-5-carboxamide]
10 | 850 | CCC(=O)N1CCCC(Cn2ncc(Cl)c2C(=O)Nc2ncc(C#Cc3ccc(F)cc3)cc2C)C1 (stereo not drawn) [Compound 355, 4-chloro-N-(5-((4-fluorophenyl)ethynyl)-3-methylpyridin-2-yl)-1-((1-propionylpiperidin-3-yl)methyl)-1H-pyrazole-5-carboxamide]
11 | 540 | O=C(Nc1ncc(C#Cc2ccccc2)cc1F)c1c(Cl)cnn1C1CCN(C(=O)C2CCCC2)CC1 [Compound 299, 4-chloro-1-(1-(cyclopentanecarbonyl)piperidin-4-yl)-N-(3-fluoro-5-(phenylethynyl)pyridin-2-yl)-1H-pyrazole-5-carboxamide]
12 | 660 | CC(=O)N1C[C@H]2C[C@H](n3ncc(Cl)c3C(=O)Nc3ncc(C#Cc4ccc(F)cc4)cc3C)C[C@H]2C1 [Compound 331, 1-[(3aR,5s,6aS)-2-acetyloctahydrocyclopenta[c]pyrrol-5-yl]-4-chloro-N-{5-[(4-fluorophenyl)ethynyl]-3-methylpyridin-2-yl}-1H-pyrazole-5-carboxamide]
13 | 850 | Cc1cc(C#Cc2ccccc2)cnc1NC(=O)c1c(Cl)cnn1[C@@H]1CCN(C(=O)OC(C)(C)C)C1 [Compound 353, tert-butyl (R)-3-(4-chloro-5-((3-methyl-5-(phenylethynyl)pyridin-2-yl)carbamoyl)-1H-pyrazol-1-yl)pyrrolidine-1-carboxylate]
14 | 1250 | Cc1cc(OCc2ccccc2)ccc1NC(=O)c1c(Cl)cnn1C1CCN(C(=O)C2COCCO2)CC1 (stereo not drawn) [Compound 391, 1-(1-(1,4-dioxane-2-carbonyl)piperidin-4-yl)-N-(4-(benzyloxy)-2-methylphenyl)-4-chloro-1H-pyrazole-5-carboxamide]
15 | 400 | Cc1cc(C#Cc2cccc(F)c2)cnc1NC(=O)c1c(Cl)cnn1CC1CCN(C(=O)C(C)C)CC1 [Compound 249, 4-chloro-N-(5-((3-fluorophenyl)ethynyl)-3-methylpyridin-2-yl)-1-((1-isobutyrylpiperidin-4-yl)methyl)-1H-pyrazole-5-carboxamide]

Row | SMILES | IC50 [nM]
16 | CC(=O)N1CC2CC(C1)C2Cn1ncc(Cl)c1C(=O)Nc1ncc(C#Cc2ccccc2)cc1C (stereo not drawn) [Compound 370, 1-((3-acetyl-3-azabicyclo[3.1.1]heptan-6-yl)methyl)-4-chloro-N-(3-methyl-5-(phenylethynyl)pyridin-2-yl)-1H-pyrazole-5-carboxamide] | 980

same assay, conditions: TREK-1 Thallium (Tl+) flux assay; values without footnote *12 are Method 1

Row | IC50 [nM] | SMILES
17 | 240 | Cc1cc(C#Cc2ccccc2)cnc1NC(=O)c1c(Cl)cnn1C1CCN(C(=O)C2CC2)CC1 [Compound 149, 4-chloro-1-(1-(cyclopropanecarbonyl)piperidin-4-yl)-N-(3-methyl-5-(phenylethynyl)pyridin-2-yl)-1H-pyrazole-5-carboxamide]
18 | 270 | CC(=O)N1CCC(C#N)(Cn2ncc(Cl)c2C(=O)Nc2ncc(C#Cc3ccc(F)cc3)cc2C)CC1 [Compound 179, 1-((1-acetyl-4-cyanopiperidin-4-yl)methyl)-4-chloro-N-(5-((4-fluorophenyl)ethynyl)-3-methylpyridin-2-yl)-1H-pyrazole-5-carboxamide]
19 | 140 | CC(C)C(=O)N1CC[C@H](Cn2ncc(Cl)c2C(=O)Nc2ncc(C#Cc3ccccc3)cc2F)[C@H](F)C1 [Compound 58, 4-chloro-1-(((3S,4R)-3-fluoro-1-isobutyrylpiperidin-4-yl)methyl)-N-(3-fluoro-5-(phenylethynyl)pyridin-2-yl)-1H-pyrazole-5-carboxamide]
20 | 290 | Cc1cc(C#Cc2ccccc2)cnc1NC(=O)c1c(Cl)cnn1[C@H]1CC[C@H](NC(=O)C(C)C)CC1 [Compound 191, 4-chloro-1-(trans-4-isobutyramidocyclohexyl)-N-(3-methyl-5-(phenylethynyl)pyridin-2-yl)-1H-pyrazole-5-carboxamide]
21 | 90 | CC(=O)N1CCC(n2ncc(Cl)c2C(=O)Nc2ncc(C#Cc3cccc(F)c3)cc2F)CC1 [Compound 25, 1-(1-acetylpiperidin-4-yl)-4-chloro-N-(3-fluoro-5-((3-fluorophenyl)ethynyl)pyridin-2-yl)-1H-pyrazole-5-carboxamide]
22 | 230 | CC(C)C(=O)N1CCC(CCn2ncc(Cl)c2C(=O)Nc2ncc(C#Cc3ccccc3)cc2F)CC1 [Compound 144, 4-chloro-N-(3-fluoro-5-(phenylethynyl)pyridin-2-yl)-1-(2-(1-isobutyrylpiperidin-4-yl)ethyl)-1H-pyrazole-5-carboxamide]
23 | 110 | Cc1cc(C#Cc2cccs2)cnc1NC(=O)c1c(Cl)cnn1C1CC2(C1)CN(C(=O)C1CC1)C2 [Compound 36, 4-chloro-1-(2-(cyclopropanecarbonyl)-2-azaspiro[3.3]heptan-6-yl)-N-(3-methyl-5-(thiophen-2-ylethynyl)pyridin-2-yl)-1H-pyrazole 5-carboxamide]
24 | 280 | Cc1cc(C#Cc2ccc(F)cc2)cnc1NC(=O)c1c(Cl)cnn1C1CCN(C(=O)C(C)(C)C)CC1 [Compound 181, 4-chloro-N-(5-((4-fluorophenyl)ethynyl)-3-methylpyridin-2-yl)-1-(1-pivaloylpiperidin-4-yl)-1H-pyrazole-5-carboxamide]
25 | 280 | Cc1cc(C#Cc2ccccc2)cnc1NC(=O)c1c(Cl)cnn1CC1(C)CCN(C(=O)C2CC2C)CC1 (stereo not drawn) [Compound 184, 4-chloro-1-((4-methyl-1-(2-methylcyclopropane-1-carbonyl)piperidin-4-yl)methyl)-N-(3-methyl-5-(phenylethynyl)pyridin-2-yl)-1H-pyrazole-5-carboxamide]

same assay, conditions: read-out: Tl^+ Assay % inhibition at 30 uM (Minus value indicates activation of TREK-1); at 30 uM; CHO-K1 cells stably expressing human TREK-1; minus = activation

Row | inhibition at 30 µM [%] | SMILES
26 | -123 | Cc1cc(C#Cc2ccccc2F)cnc1NC(=O)c1nn(CCC2CCN(C(=O)C3CC3)CC2)cc1Cl [Compound 441, 4-chloro-1-(2-(1-(cyclopropanecarbonyl)piperidin-4-yl)ethyl)-N-(5-((2-fluorophenyl)ethynyl)-3-methylpyridin-2-yl)-1H-pyrazole-3-carboxamide]
27 | -116 | Cc1cc(C#Cc2ccccc2)cnc1NC(=O)c1nn(CC2CCOCC2)cc1Cl [Compound 444, 4-chloro-N-(3-methyl-5-(phenylethynyl)pyridin-2-yl)-1-((tetrahydro-2H-pyran-4-yl)methyl)-1H-pyrazole-3-carboxamide]
